Patent US11787766B2, “Compound having PD-L1 inhibitory activity, preparation method therefor and use thereof” (SHANGHAI ENNOVABIO PHARMACEUTICALS CO., LTD., priority 2017, dated 2023)

target: PD-L1 (Homo sapiens (Human), UniProt Q9NZQ7); assay: PD-1/PD-L1 homogeneous time-resolved fluorescence (HTRF) binding assay; details: Cisbio PD1/PD-L1 binding assay kit
From the text: PD-1/PD-L1 homogeneous time-resolved fluorescence (HTRF) detection technology was used to detect the binding ability of the compound to PD-L1.
PD1/PD-L1 binding assay kit (Cisbio, Cat #63ADK000CPDEC) was used, which includes two proteins, Tag 1-PD-L1 and Tag 2-PD-1, and two antibodies, Anti-Tag1-Eu^3+ and Anti-Tag2-XL 665. Assay principle: Anti-tag1-Eu^3+ is the HTRF donor, and Anti-Tag2-XL 665 is the HTRF acceptor. When Tag 1-PD-L1 and Tag 2-PD-1 interact, the added HTRF donor and the acceptor are close to each other. After the donor receives the excitation energy, it transfers part of the energy to the acceptor, thus producing 665 nm emission signal. When the compound is added to block the PD1/PD-L1 interaction, only 620 nm emission light was detected. The inhibitory effect of the compound was determined by analyzing the ratio of 665 nm/620 nm. Tag 1-PD-L1 was diluted with Diluent buffer (cat #62DLBDDF) to a working concentration of 10 nM, Tag 2-PD-1 was diluted with Diluent buffer to a working concentration of 500 nM, and Anti-Tag1-Eu^3+ was diluted with detection buffer (cat #62DB1FDG) by 1:100, Anti-Tag2-XL 665 was diluted with detection buffer by 1:20, and the test compound was diluted with Diluent buffer to a final concentration of 2×. In a 384-well plate, 2 μL of compound was added to each well, and then 4 μL of Tag 1-PD-L1, 4 μL of Tag 2-PD-1 were added and incubated at room temperature for 15 minutes. 5 μL Anti-Tag1-Eu^3+ and 5 μL Anti-Tag2-XL 665 were added and incubated overnight at room temperature, and detected with BioTek Synergy™ Neo2 Multifunctional Microplate Reader to obtain the ratio of 665 nm/620 nm. The IC50 curve was fitted by GraphPad Prism 5.02.

Sequence of PD-L1 (Q9NZQ7 19-238): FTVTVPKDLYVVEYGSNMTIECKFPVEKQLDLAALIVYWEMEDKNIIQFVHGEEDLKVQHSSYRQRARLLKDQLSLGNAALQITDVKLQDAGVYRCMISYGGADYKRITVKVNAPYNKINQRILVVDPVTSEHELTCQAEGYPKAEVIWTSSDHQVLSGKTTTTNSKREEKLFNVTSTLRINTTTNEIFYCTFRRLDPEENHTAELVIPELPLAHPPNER

Compound | IC50 [nM]
COc1nc(OCc2cccc(-c3cccc(COc4ccc(CNCC(C)(C)O)c(OC)n4)c3C)c2C)ccc1CNCC(C)(C)O [Compound 20] | 10 to 100
COc1cc(N)cc(OCc2cccc(-c3cccc(CO)c3C)c2C)n1 [Compound 12, (3′-(((4-amino-6-methoxypyridin-2-yl)oxo)methyl)-2,2′-dimethyl-[1,1′-biphenyl]-3-yl)methanol] | > 1000
Cc1c(CO)cccc1-c1cccc(COc2cccc(N)n2)c1C [Compound 13, (3′(((6-aminopyridin-2-yl)oxo)methyl)-2,2′-dimethyl-[1,1′-biphenyl]-3-yl) methanol] | > 1000
COc1nc(OCc2cccc(COc3ccc(CNCCNC(C)=O)c(OC)n3)c2C)ccc1CNCCNC(C)=O [Compound 19] | 100 to 1000
COc1nc(OCc2cccc(-c3csc(COc4ccc(CNCCNC(C)=O)c(OC)n4)c3C)c2C)ccc1CNCCNC(C)=O [Compound 36] | < 10
COc1nc(OCc2cccc(-n3nnc(COc4ccc(CNCCNC(C)=O)c(OC)n4)c3C)c2C)ccc1CNCCNC(C)=O [Compound 31] | > 1000
COc1nc(OCc2cccc(-c3cccc(COc4ccc(CNC5CCCCC5O)c(OC)n4)c3C)c2C)ccc1CNC1CCCCC1O (centres unmarked) [Compound 24] | 10 to 100
COc1nc(OCc2cccc(-c3cccc(CO)c3C)c2C)ccc1N [Compound 8] | > 1000
CC(=O)NCCNCc1cc(Cl)c2nc(-c3cccc(-c4cccc(-c5nc6c(Cl)cc(CNCCNC(C)=O)cn6n5)c4C)c3C)nn2c1 [Compound 45] | < 10
COc1nc(OCc2sc(C)c(COc3ccc(CNCCNC(C)=O)c(OC)n3)c2C)ccc1CNCCNC(C)=O [Compound 40] | > 1000
COc1nc(OCc2cccc(-c3cccc(COc4ccc(CN5CCCC5CC(=O)O)c(OC)n4)c3C)c2C)ccc1CN1CCCC1CC(=O)O (centres unmarked) [Compound 39] | 10 to 100
COc1nc(OCc2cccc(-c3cccc(COc4ccc(CN[C@H](C(=O)O)[C@@H](C)O)c(OC)n4)c3C)c2C)ccc1CN[C@H](C(=O)O)[C@@H](C)O [Compound 51] | < 10
Cc1c(COc2ccc3[nH]c(CO)cc3n2)cccc1-c1cccc(COc2ccc3[nH]c(CO)cc3n2)c1C [Compound 32] | > 1000
COc1nc(OCc2cccc(-n3c(C)nc(COc4ccc(CNCCNC(C)=O)c(OC)n4)c3C)c2C)ccc1CNCCNC(C)=O [Compound 44] | > 1000
COC(=O)[C@@H]1C[C@H](O)CN1Cc1ccc(OCc2cccc(-c3cccc(COc4ccc(CN5C[C@@H](O)C[C@H]5C(=O)OC)c(OC)n4)c3C)c2C)nc1OC [Compound 41] | 10 to 100
COc1nc(OCc2cccc(-n3nc(C)c(COc4ccc(CNCCNC(C)=O)c(OC)n4)c3C)c2C)ccc1CNCCNC(C)=O [Compound 29] | > 1000
COc1nc(OCc2cccc(-c3cccc(COc4ccc(CN5C[C@@H](O)C[C@H]5C(=O)O)c(OC)n4)c3C)c2C)ccc1CN1CC[C@H](O)C1 [Compound 47] | < 10
COc1nc(OCc2cccc(-c3cccc(COc4ccc(CN5CCCC[C@@H]5C(=O)O)c(OC)n4)c3C)c2C)ccc1CN1CCCC[C@@H]1C(=O)O [Compound 27] | < 10

The next lines start with the values.

IC50 [nM] | Compound
< 10 | COc1nc(OCc2cccc(-c3cccc(COc4ccc(CNC(CO)CO)c(OC)n4)c3Cl)c2Cl)ccc1CNC(CO)CO [Compound 68]
< 10 | COc1nc(OCc2cccc(-c3cccc(COc4ccc(CN5C[C@@H](F)C[C@H]5C(=O)O)c(OC)n4)c3Cl)c2Cl)ccc1CN1C[C@@H](F)C[C@H]1C(=O)O [Compound 79]
10 to 100 | COc1nc(OCc2cccc(-c3cccc(COc4ccc(CN5CC[C@H](NC(C)=O)C5)c(OC)n4)c3C)c2C)ccc1CN1CC[C@H](NC(C)=O)C1 [Compound 54]
< 10 | COc1nc(OCc2cccc(-c3cccc(COc4ccc(CN5CC(C(N)=O)C5)c(OC)n4)c3C)c2C)ccc1CN1CC(C(N)=O)C1 [Compound 63]
10 to 100 | COc1nc(OCc2cccc(-c3cccc(COc4ccc(CN5CC(CC#N)C5)c(OC)n4)c3C)c2C)ccc1CN1CC(CC#N)C1 [Compound 61]
10 to 100 | COc1nc(OCc2cccc(-c3cccc(COc4ccc(CN5C[C@@H](O)C[C@H]5C(=O)O)c(OC)n4)c3Cl)c2Cl)ccc1CO [Compound 57]
< 10 | COc1nc(OCc2cccc(-c3cccc(COc4ccc(CNCC(N)=O)c(OC)n4)c3Cl)c2Cl)ccc1CNCC(N)=O [Compound 73]
10 to 100 | CNS(=O)(=O)CCNCc1ccc(OCc2cccc(-c3cccc(COc4ccc(CNCCS(=O)(=O)NC)c(OC)n4)c3Cl)c2Cl)nc1OC [Compound 80]
< 10 | COc1nc(OCc2cccc(-c3cccc(COc4ccc(CN5CC(O)C(CC#N)C5)c(OC)n4)c3C)c2C)ccc1CN1CC(O)C(CC#N)C1 (centres unmarked) [Compound 65]
10 to 100 | COc1nc(OCc2cccc(-c3cccc(COc4ccc(CNCC(N)C(F)(F)F)c(OC)n4)c3Cl)c2Cl)ccc1CNCC(N)C(F)(F)F (centres unmarked) [Compound 82]
< 10 | COc1nc(OCc2cccc(-c3cccc(COc4ccc(CN5C[C@@H](F)C[C@H]5C(=O)O)c(OC)n4)c3Cl)c2Cl)ccc1CN1CCC(C(F)F)C1 (some centres unmarked) [Compound 81]
< 10 | COc1nc(OCc2cccc(-c3cccc(COc4ccc(CN5C[C@@H](O)C[C@H]5C(=O)O)c(OC)n4)c3Cl)c2Cl)ccc1CN1CC[C@H](O)C1 [Compound 58]
< 10 | COc1nc(OCc2cccc(-c3cccc(COc4ccc(CN5CCCCC5C(=O)O)c(OC)n4)c3Cl)c2Cl)ccc1CN1CCCCC1C(=O)O (centres unmarked) [Compound 70]
< 10 | COc1nc(OCc2cccc(-c3cccc(COc4ccc(CN5C[C@@H](O)C[C@H]5C(=O)O)c(OC)n4)c3F)c2C)ccc1CN1C[C@@H](O)C[C@H]1C(=O)O [Compound 66]
